# Test results taken from patent publication US20020143059A1, “Skin care product containing retinoids, retinoid booster and phytoestrogens in a dual compartment package” (priority 2000, published 2002).
# Biological target: T1, CRABPII (Homo sapiens, UniProt P29373)
# T1 construct: made in house; host or cells: E. coli BLR(DE3)pLysS
# T1 sequence (P29373 1-138): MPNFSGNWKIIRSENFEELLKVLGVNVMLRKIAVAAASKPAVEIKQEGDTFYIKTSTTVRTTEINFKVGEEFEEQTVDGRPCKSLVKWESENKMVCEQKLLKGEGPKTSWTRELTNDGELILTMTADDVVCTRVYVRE
# Experiment: CRABPII antagonist radioactive binding assay
# Details: competition with radioactive all trans retinoic acid, ligand in excess
# Source text: 2.6 Assay for CRABPII antagonists (To identify B4)
# 2.6.1 Synthesis of CRABPII
# The gene CRABPII was cloned in pET 29a-c(+) plasmid (Novagen). The cloned gene was under control of strong bacteriophage T7 transcription and translation signals. The source of T7 polymerase was provided by the host cell E.coli BLR(DE3)pLysS (Novagen). The latter has a chromosomal copy of T7 polymerase under lacUV5 control, induced by the presence of IPTG. The plasmid was transferred into E. coli BLR(DE3)pLysS cells by transformation according to the manufacturer protocol (Novagen).
# An overnight culture of the transformed cells was diluted 1:100 into 2xYT containing 50 μg/mL kanamycin and 25 μg/mL chloramphenicol. The cells grew while shaking at 37° C. until the OD at 600 nm reached 0.6-0.8. Then IPTG was added to a final concentration of 1 mM and the culture was incubated for an additional two hours. The cells were harvested by centrifugation at 5000 g for 10 minutes at room temperature. The pellet was stored at −20° C. […]
# The supernatant from step a. was loaded onto a 2.5×100 cm column of sephacryl S-300 (Pharmacia) at room temperature. […] Collected 2-mL fractions were checked for ultraviolet absorbance at 280 nm. […]
# For the competitive assay, another ligand in excess (6670:1, 670:1 or 70:1) was added to the mix. […] The radioactivity of the filtrate was measured by scintillation counter.
compound,measurement,value
CCCCCCC(O)CCCCCCCCCCC(=O)O (stereo not shown) [12-Hydroxystearic Acid],% Inhibition CRABPII,>50%
